Results as given in publication PMC2643003, “Improved Learning and Memory in Aged Mice Deficient in Amyloid β-Degrading Neutral Endopeptidase” (PLoS ONE, 2009).

Experiments:
NEP [1] = settings: infusion into hippocampus or cortical ventricle, young rats, 4 weeks, local Aβ accumulation; cited from earlier work
Source text: The underlying mechanisms leading to better learning and improved LTP are still speculative. However, this improved learning seems more likely to be an Aβ-independent effect in our mouse model.

NEP [2] = settings: rats and mice after treatment with thiorphan; cited from earlier work
Source text: Consistent with previous studies showing a broad spectrum of peptidases inhibited by that peptidase inhibitor [18], we hypothesized that there were other factors inhibited by thiorphan as a requisite for murine Aβ accumulation.

[3] = format: in vitro ADME, mice
Method: Figure 5 NEP-dependent neuropeptide degradation. […] The reactions were stopped by adding 0.35 M perchloric acid. In parallel assays, heat-inactivated probes (5 min at 90°C) were used as a control. After centrifugation of sedimented proteins, HPLC analyses were performed by isocratic elution as described by Siems et al.. […] The reactions were stopped by addition of 0.35 M perchloric acid. In parallel assays, heat-inactivated NEP (5 min at 90°C) was used as a control. HPLC analysis was performed by isocratic elution as described. The significance of differences was calculated by two-sided t test; n≥4; **P<0.01. (c) For galanin and GLP-1 immunohistochemistry, slices were incubated with the specific antibodies, followed by incubation with biotinylated anti-rabbit IgG. Immunoreactive products were visualized by the nickel ammonium sulfate-intensified diaminobenzidine reaction. Unequivocally stained regions in the murine cortex were localized and defined as ROIs (regions of interest), and luminometrically compared with adjacent regions without detectable staining (reference ROIs) (for both regions n = 40). The calculated differences were shown as mean±s.e.m.). Significant differences were calculated by Student's t test, indicated by **P<0.01, ***P<0.001.
The production of brain membranes and the HPLC-monitored peptide degradation procedures were performed as described in detail by Siems et al.. […]

recombinant (rc) NEP = target: T1, recombinant (rc) NEP (Homo sapiens, UniProt P08473); test: HPLC-monitored peptide degradation by recombinant NEP; format: in vitro ADME; settings: peptide 5 µM, rcNEP 20 ng (R&D Systems), over 120 min, stopped with 0.35 M perchloric acid, heat-inactivated control, HPLC isocratic elution, n≥3; values only in Figure 5a
T1 construct: purchased R&D Systems GmbH (Wiesbaden, Germany)
Method: The reactions were stopped by adding 0.35 M perchloric acid. In parallel assays, heat-inactivated probes (5 min at 90°C) were used as a control. After centrifugation of sedimented proteins, HPLC analyses were performed by isocratic elution as described by Siems et al. [45]. […] The reactions were stopped by addition of 0.35 M perchloric acid. In parallel assays, heat-inactivated NEP (5 min at 90°C) was used as a control. HPLC analysis was performed by isocratic elution as described [45].
The production of brain membranes and the HPLC-monitored peptide degradation procedures were performed as described in detail by Siems et al. [45]. […] The recombinant NEP was obtained from R&D Systems GmbH (Wiesbaden, Germany).

[4] = system: associative and spatial learning; settings: injected intracerebroventricularly; cited from earlier work
Source text: It has been shown that NEP targets a variety of peptides involved in learning and memory such as oxytocin [36], NPY [37] or CCK [38]. Thus, marked improvement in learning and memory in very old NEP-deficient mice if compared with their aged-matched controls appears to be explained best by these NEP-degradable neuropeptides. Nevertheless, the known catalytic properties of NEP - it preferentially hydrolyses oligopeptides by cleaving on the N-terminal side of hydrophobic amino acid residues - and the knowledge of further potential learning-associated peptides [39]–[42] motivated us to t ...

T1 sequence (P08473 whole entry): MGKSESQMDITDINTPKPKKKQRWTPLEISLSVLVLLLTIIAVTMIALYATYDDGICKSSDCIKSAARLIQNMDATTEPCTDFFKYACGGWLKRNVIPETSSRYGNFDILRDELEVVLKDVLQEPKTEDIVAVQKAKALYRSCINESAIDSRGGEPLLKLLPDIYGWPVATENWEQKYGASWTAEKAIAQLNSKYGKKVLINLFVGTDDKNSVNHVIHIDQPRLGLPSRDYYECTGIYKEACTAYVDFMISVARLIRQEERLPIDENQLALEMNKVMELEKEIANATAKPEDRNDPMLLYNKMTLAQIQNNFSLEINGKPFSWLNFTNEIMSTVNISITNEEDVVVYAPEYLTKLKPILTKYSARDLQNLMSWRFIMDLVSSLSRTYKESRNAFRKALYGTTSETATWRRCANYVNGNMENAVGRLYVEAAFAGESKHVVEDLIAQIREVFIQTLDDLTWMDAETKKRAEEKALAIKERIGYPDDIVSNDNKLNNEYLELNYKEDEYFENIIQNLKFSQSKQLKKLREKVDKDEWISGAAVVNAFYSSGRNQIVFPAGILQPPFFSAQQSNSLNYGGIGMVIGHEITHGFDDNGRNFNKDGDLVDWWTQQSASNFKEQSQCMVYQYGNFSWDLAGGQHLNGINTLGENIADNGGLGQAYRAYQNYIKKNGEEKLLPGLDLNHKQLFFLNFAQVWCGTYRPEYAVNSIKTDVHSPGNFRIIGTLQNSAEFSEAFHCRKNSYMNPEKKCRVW

Molecule: O=C(O)CNC(=O)C(CS)Cc1ccccc1 (stereo not drawn) [thiorphan]
- effect on learning and memory (NEP [1]): impaired learning and memory
- deposition of endogenous Aβ (NEP [2]): plaque formation and fibrillization

Molecule: galanin
- peptide degradation in brain membranes of wild-type (+/+) and knockout mice (−/−) [3]: identified galanin as a NEP substrate
- degradation by rcNEP (recovery in %) (recombinant (rc) NEP): identified galanin as a NEP substrate

Molecule: glucagon-like peptide 1 [GLP-1]
- effect on associative and spatial learning [4]: improve associative and spatial learning
- peptide degradation in brain membranes of wild-type (+/+) and knockout mice (−/−) [3]: reduced rate of GLP-1 degradation in brains lacking NEP
